Reference: PMC12154284, “FYCO1 Peptide Analogs: Design and Characterization of Autophagy Inhibitors as Co-Adjuvants in Taxane Chemotherapy of Prostate Cancer” (International Journal of Molecular Sciences, 2025)
“Also recorded” adds a separate entry of the source.

Key:
[1] = molecular target: human recombinant His-tagged LC3B (Homo sapiens, UniProt Q9GZQ8); test: MST binding to human recombinant His-tagged LC3B; conditions: Table S1
Protocol: To measure the dissociation constants (Kd) of the peptides on human recombinant His-tagged LC3B protein, MST experiments were carried out on a Monolith NT.115^Pico instrument (see the Materials and Methods section for details).
A constant concentration of red-labelled LC3B (10 nM) was incubated with sixteen 1:1 serial dilutions of peptides (concentration details are consultable in the Supplementary Materials, Table S1). PBS-T (phosphate-buffered saline + 0.05% Tween™ 20), from NanoTemper Technologies, with 2.5% dimethyl sulfoxide (DMSO) (Product No. D8418; Sigma-Aldrich, Saint Louis, MO, USA) was used as buffer. After 15 min of incubation at room temperature, samples were loaded into standard capillaries (Product No. MO-K022; NanoTemper Technologies) and analyzed at 25 °C with 20% excitation power and medium MST power (40%) using the “Binding Affinity” mode available in the MO.Control v1.6 software (NanoTemper Technologies GmbH, München, Germany). Prior to Kd determination, peptide auto-fluorescence was assessed. Data analysis was performed using MO.Affinity Analysis v2.3 software (NanoTemper Technologies GmbH, München, Germany) applying the Kd model for fitting the binding curve, while the figures were generated using GraphPad Prism v8.0.2 software (GraphPad, Boston, MA, USA).
Two independent experiments were performed to determine the Kd value.
RA = Response Amplitude; SNR = Signal -to-Noise Ratio.

autophagic response = conditions: CRPC therapy; ref [39]; cited from earlier work
Excerpt: An important problem of tumor is represented by therapy resistance. In fact, in prostate cancer, numerous studies have investigated the implications of autophagy in resistance to hormonal therapies or chemotherapeutic agents. […] Docetaxel (Doc), a chemotherapeutic drug which inhibits microtubule depolymerization, represents the first-line treatment for metastatic CRPC. The treatment is effective in the early stages, but over time its efficacy is drastic ...

[2] = Peptide aggregation in MST capillaries; format: physicochemical
Protocol: This technique enables the determination of the dissociation constant (Kd) across a concentration range spanning from 1 picomolar (pM) to the millimolar (mM) level. The experimental conditions mirrored those in our previously published work. […] A constant concentration of red-labelled LC3B (10 nM) was incubated with sixteen 1:1 serial dilutions of peptides (concentration details are consultable in the Supplementary Materials, Table S1). PBS-T (phosphate-buffered saline + 0.05% Tween™ 20), from NanoTemper Technologies, with 2.5% dimethyl sulfoxide (DMSO) (Product No. D8418; Sigma-Aldrich, Saint Louis, MO, USA) was used as buffer. After 15 min of incubation at room temperature, samples were loaded into standard capillaries (Product No. MO-K022; NanoTemper Technologies) and analyzed at 25 °C with 20% excitation power and medium MST power (40%) using the “Binding Affinity” mode available in the MO.Control v1.6 software (NanoTemper Technologies GmbH, München, Germany). Prior to Kd determination, peptide auto-fluorescence was assessed. […] The “Capillary Scan” graphs, showing the fluorescence homogeneity in the capillaries of all biophysically tested peptides, are provided in the Supplementary Materials, Figure S5.

PC cells = conditions: with Doc, cited from earlier work
Excerpt: (§1) Many studies have analyzed the nature of autophagy activated by Doc in PC and the impact of autophagy inhibitors on cell proliferation. The results obtained using 3-Methyladenine (3-MA) in association with Doc were contradictory. […] A more convincing result was obtained using the autophagy inhibitor CQ which enhanced the action ...

PC-3 cells [3] = test: MTT cell viability, PC-3; format: cell-based, Human; conditions: MTT, 48 h, 1-100 nM
Protocol: The study was conducted on several cancer cells. Human CRPC cell lines (PC-3 and DU145) were purchased from the American Type Culture Collection (ATCC, Manassas, VA, USA) and cultured at 37 °C and 5% CO2 in RPMI 1640 (EuroClone, Milano, Italy) supplemented, respectively, with 7.5% (PC3) and 5% (DU145) FBS (Gibco, ThermoFisher Scientific, Waltham, MA, USA), 1% L-glutamine, and antibiotics (100 IU/mL penicillin G). Luminal A MCF-7 breast cancer cells (ATCC, Manassas, VA, USA) were cultured in Dulbecco’s Modified Eagle Medium/Nutrient Mixture F-12 (DMEM-F12, Gibco Laboratories, Waltham, MA, USA) supplemented with 10% fetal bovine serum (FBS, Gibco Laboratories, Waltham, MA, USA), 1% penicillin/streptomycin (Gibco Laboratories), and 1% L-glutamine (Gibco Laboratories). A549 human lung cancer cell line (ATCC, Manassas, VA, USA) were cultured in Dulbecco’s modified eagle medium (DMEM, Lonza, Switzerland) supplemented with 10% FBS (Gibco Laboratories, Waltham, MA, USA), 1% of 100 u/mL penicillin/streptomycin (Gibco Laboratories), and 1% L-glutamine (Gibco Laboratories). […]
For viability studies, MTS (Cell Titer 96 Aqueous One Solution Cell Proliferation Assay) (Promega, Nacka, Sweden) and 3-(4,5-dimethylthiazole-2-yl)-2,5-diphenyltetrazolium bromide (MTT) (Sigma-Aldrich, St. Louis, MO, USA) assays were conducted. […] The absorbance (λ = 550 nm) was measured by an EnSpire Multimode Plate reader (Perkin Elmer, Milano, Italy). The absorbance value of untreated cells was set at 100% (control), and the viability of treated cells was expressed as a percentage of the control. […] After 72 h, cell viability was assessed using an MTS assay according to the manufacturer’s protocol using a 96-well-plate spectrophotometer (Varioskan Flash Multimode Reader; ThermoFisher Scientific, Waltham, MA, USA) set at λ = 490 nm. The absorbance value of untreated cells was set at 100% (control), and the viability of treated cells was expressed as a percentage of the control. […]

[4] = system: LC3-I and LC3-II in PC-3 cells; test: Western blot of LC3-I and LC3-II in PC-3 cells; format: cell-based, Human; conditions: AM10, Doc (25 nM) or both, 48 h
Protocol: (§2) PC-3 cells were plated at 2 × 10^5 cells/dish in 6 cm dishes and treated with different compounds. At the end of the treatments the cells were lysed in RIPA buffer. Protein extracts (15–35 μg) were resuspended in presence of reducing Sample buffer (Bio-Rad Laboratories, Segrate, Milano, Italy), heated at 95 °C for 5 min and separated by SDS-PAGE WB. Proteins were transferred onto nitrocellulose or PVDF membranes. After blocking with nonfat dried milk, membranes were incubated with anti-ATG5 (1:1000) (#12994) Cell Signaling Technology Inc. (Boston, MA, USA), anti-LC3 (1:1000) (L8918) (Sigma-Aldrich), anti-SQSTM1/p62 (1:2000) (PA5-20839) (Thermo Fisher Scientific, Waltham, MA, USA), anti-cleaved-caspase-3 (1:500) (#9664) Cell Signaling Technology Inc. primary antibodies overnight at 4 °C. Horseradish peroxidase (HRP) conjugated secondary anti-rabbit or anti-mouse antibodies were used for 1 h at room temperature and the membranes were processed using chemiluminescence kit Cyanagen Ultra (Cyanagen, Bologna, Italy). In each WB experiment alpha-tubulin expression (T6199) (Sigma-Aldrich, St. Louis, MO, USA) was evaluated as a protein control. Relative optical density of the bands was assessed by ImageJ software (version 1.54g). Uncropped WB images are available in the Supporting Information.

[5] = system: cleaved caspase-3 in PC-3 cells; test: Western blot of cleaved caspase-3 in PC-3 cells; format: cell-based, Human; conditions: AM10, Doc (25 nM) or both, 48 h
Protocol: as §2

LC3B (Homo sapiens) = LC3B (Homo sapiens) (UniProt Q9GZQ8); conditions: cited from earlier work
PC-3 cells [6] = conditions: with Doc; ref [45]; cited from earlier work
Excerpt: as §1

[7] = system: breast and colon cancer cells; conditions: ref [32]; cited from earlier work
Excerpt: The growing applications of bromine and iodine substituents in anticancer treatment lend ...

## CC[C@H](C)[C@H](NC(=O)[C@H](CC(=O)O)NC(=O)[C@H](Cc1ccc(I)cc1)NC(=O)[C@@H](NC(=O)[C@H](C)NC(=O)[C@@H](N)CC(=O)O)C(C)C)C(=O)N[C@H](C(=O)N[C@H](C(=O)N[C@@H](CC(=O)O)C(=O)N[C@@H](CCC(=O)O)C(=O)N[C@@H](CCC(=O)O)C(=O)N[C@@H](CC(C)C)C(=O)O)[C@@H](C)O)[C@@H](C)CC [AM2]
[1]
  Response Amplitude (RA): 7.8

## C[C@]12CC[C@H](O)CC1=CC[C@@H]1[C@@H]2CC[C@]2(C)C(c3cccnc3)=CC[C@@H]12 [Abiraterone]
Autophagic response
  autophagic response: activate an autophagic response that reduces their effectiveness

## CC[C@H](C)[C@H](NC(=O)[C@H](CC(=O)O)NC(=O)[C@H](Cc1ccccc1)NC(=O)[C@@H](NC(=O)[C@H](C)NC(=O)[C@@H](N)CC(=O)O)C(C)C)C(=O)N[C@H](C(=O)N[C@H](C(=O)N[C@H]1CSCc2ccc(cc2)CSC[C@@H](C(=O)O)NC(=O)[C@H](CCC(=O)O)NC(=O)[C@H](CCC(=O)O)NC1=O)[C@@H](C)O)[C@@H](C)CC [AM7]
[1]
  Response Amplitude (RA): 3.7
[2]; 125, 62.5 and 31.25 µM, MST capillary scan, PBS-T + 2.5% DMSO
  aggregation at highest concentrations, in words: the three highest concentration points (125, 62.5, and 31.25 µM) were discarded due to aggregation; also recorded: the three highest concentrations (125, 62.5, and 31.25 µM) were excluded from analysis due to aggregation phenomena
[2]; MST buffer PBS-T + 2.5% DMSO, 25 °C
  concentration at which aggregation is displayed: ≥ 31.25 µM

## CCN(CC)CCCC(C)Nc1ccnc2cc(Cl)ccc12 (stereo not drawn) [CQ, Chloroquine]
PC cells; ref [49]
  effect on the action of Doc: enhanced the action of Doc by reducing resistance to chemotherapy

## CC(=O)O[C@@]12CO[C@@H]1C[C@H](O)[C@@]1(C)C(=O)[C@H](O)C3=C(C)[C@@H](OC(=O)[C@H](O)[C@@H](NC(=O)OC(C)(C)C)c4ccccc4)C[C@@](O)([C@@H](OC(=O)c4ccccc4)[C@H]21)C3(C)C [Doc, Docetaxel, reference compound]
PC-3 cells [3]
  PC-3 cell viability, Docetaxel: significant reduction in cell viability at concentrations of 10 nM, 25 nM, 50 nM, and 100 nM, with a dose-dependent effect
[4]
  LC3-I / LC3-II expression, Doc/AM10 experiment: significant increase in LC3-II expression
[5]
  cleaved caspase-3 / apoptosis: trigger apoptotic cell death by activating the executor caspase-3

## FYCO1-LIR peptide
LC3B (Homo sapiens)
  Kd: 3.1 µM

## Cn1cnc(N)c2ncnc1-2 [3-MA, 3-Methyladenine]
PC-3 cells [6]
  effect on cytotoxicity of Doc in PC-3 cells: does not modify the cytotoxicity of Doc in PC-3 cells
PC cells; ref [43],[47],[48]
  effect on chemotherapy efficacy: decreased the chemotherapy efficacy
PC cells; ref [46] Hu and collaborators
  effect on cytotoxic action of Doc: enhanced the cytotoxic action of Doc

## CNC(=O)c1ccc(N2C(=S)N(c3ccc(C#N)c(C(F)(F)F)c3)C(=O)C2(C)C)cc1F [Enzalutamide]
Autophagic response
  autophagic response: activate an autophagic response that reduces their effectiveness

## Cc1ccc(S(=O)(=O)[N-]Br)cc1.[Na+] [bromamine T]
[7]
  cytotoxic effects against breast and colon cancer cells: strong cytotoxic effects against breast and colon cancer cells
